What was measured:
[1] = Allen Doisy test for estrogenic activity in vivo
Description: In vivo estrogenic activity was determined by means of the Allen Doisy test, described in F. Allen, L. A. Doisy, J. Amer. Med. Assoc., 81, 819-821 (1923)

[2] = tested on: ovariectomised (OVX) rats; experiment: Test for prevention of ovariectomy-induced bone loss in rats (anti-osteoporosis test); type: in vivo, rat; conditions: oral, 4 weeks, trabecular bone mineral density difference 40-60%
Source text: Ovariectomy of rats induces bone loss, which is due to estrogen deficiency. Administration of estrogenic compounds prevents this effect. The test is used to evaluate a compound for anti-osteoporotic activity in ovariectomised (OVX) rats. The effect on bone mass can be evaluated by peripheral Quantitative Computed Tomography (pQCT), or by quantitative analysis of X-ray pictures. Plasma osteocalcin and urinary deoxypyridinoline, calcium and phosphate gives information on bone metabolism. Increase of uterine weight and decrease of body and thymus weight reflect estrogenic effect.
Mature virgin 225-250 g female Wistar rats. Strain: Hsd/Cpd:Wu, SPF-bred by Harlan, CPB, Zeist, The Netherlands.
On day 1 of the experiment the rats are weighed and distributed over the cages in order of bodyweight, whereby the rat with the smallest bodyweight is placed in the first cage and the heaviest rat in the final cage. Treatments are randomised over the rats.
Sham-operation and ovariectomy are performed under ether anaesthesia. After recovery from the anaesthesia, within 24 h, vehicle, reference compound or test compound is administered once or twice daily for 4 weeks. […] Trabecular bone mineral density of the metaphyseal part of the femur (FBMDDIS mg/cm^3) is measured with a pQCT (peripheral Quantitative Computed Tomography machine; XCT 960A, Stratec, Birkenfeld, Germany). […]

[3] = target: T1, human estrogen receptor α (hERα) (Homo sapiens, UniProt P03372); conditions: compared with (17β)-estradiol; first value of Erα/Erβ pair
T1 sequence (P03372 1-595): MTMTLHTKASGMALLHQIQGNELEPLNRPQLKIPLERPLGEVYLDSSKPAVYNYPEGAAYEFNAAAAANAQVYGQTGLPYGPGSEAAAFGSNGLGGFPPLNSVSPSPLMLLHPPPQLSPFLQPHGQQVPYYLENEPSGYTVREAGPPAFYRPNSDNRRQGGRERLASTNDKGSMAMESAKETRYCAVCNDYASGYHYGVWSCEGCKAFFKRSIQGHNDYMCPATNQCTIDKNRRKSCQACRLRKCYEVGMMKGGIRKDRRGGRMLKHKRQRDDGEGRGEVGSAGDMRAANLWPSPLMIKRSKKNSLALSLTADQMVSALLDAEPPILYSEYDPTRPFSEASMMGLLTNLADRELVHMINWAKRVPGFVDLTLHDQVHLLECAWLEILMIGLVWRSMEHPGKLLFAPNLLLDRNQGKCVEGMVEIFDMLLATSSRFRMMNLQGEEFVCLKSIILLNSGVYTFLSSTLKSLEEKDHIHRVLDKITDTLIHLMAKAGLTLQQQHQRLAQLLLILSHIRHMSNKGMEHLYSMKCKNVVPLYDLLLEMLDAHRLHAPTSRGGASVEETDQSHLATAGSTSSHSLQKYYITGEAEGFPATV
Description: (§2) Compounds are tested for their estrogen receptor activity in a binding assay and in a transactivation assay using the human estrogen receptor α or β.
(§3) Competitive binding to cytoplasmic human estrogen receptor α or β from recombinant Chinese hamster ovary (CHO) cells is used to estimate the relative binding affinity (═RBA) potency ratio) of a test compound as compared with (17β)-estradiol (E2) for estrogen receptors α or β present in the cytosol of recombinant CHO cells, stably transfected with the human estrogen receptor α (hERα) or β receptor (hERβ).

[4] = target: T2, human estrogen receptor β (hERβ) (Homo sapiens, UniProt Q92731); conditions: compared with (17β)-estradiol; second value of Erα/Erβ pair
Description: as §2, §3

[5] = target: T2, human estrogen receptor β (hERβ); experiment: Estrogenic agonistic transactivation assay, CHO cells with rat oxytocin promoter and luciferase reporter; type: cell-based; parameters: expressed in transfected cells; host or cells: CHO cells with rat oxytocin promoter and luciferase reporter; conditions: compared with estradiol; second value of Erα/Erβ pair
Source text: (§1) The estrogenic agonistic transactivation (potency ratio) of a test compound to stimulate the transactivation of the enzyme luciferase mediated via the estrogen receptors hERα or hERβ is compared with the standard estrogen estradiol. The antiestrogenic activity (potency ratio) of a test compound to inhibit the transactivation of the enzyme luciferase mediated via the estrogen receptors hERα or hERβ by the (17β)-estradiol is compared with the standard ICI 164.384 (=(7α,17β)-N-butyl-3,17-dihydroxy-N-methylestra-1,3,5(10)-triene-7-undecanamide).

[6] = target: T1, human estrogen receptor α (hERα); experiment: as above; type: cell-based; parameters: expressed in transfected cells; host or cells: CHO cells with rat oxytocin promoter and luciferase reporter; conditions: compared with estradiol; first value of Erα/Erβ pair
Source text: as §1

T2 sequence (Q92731 whole entry): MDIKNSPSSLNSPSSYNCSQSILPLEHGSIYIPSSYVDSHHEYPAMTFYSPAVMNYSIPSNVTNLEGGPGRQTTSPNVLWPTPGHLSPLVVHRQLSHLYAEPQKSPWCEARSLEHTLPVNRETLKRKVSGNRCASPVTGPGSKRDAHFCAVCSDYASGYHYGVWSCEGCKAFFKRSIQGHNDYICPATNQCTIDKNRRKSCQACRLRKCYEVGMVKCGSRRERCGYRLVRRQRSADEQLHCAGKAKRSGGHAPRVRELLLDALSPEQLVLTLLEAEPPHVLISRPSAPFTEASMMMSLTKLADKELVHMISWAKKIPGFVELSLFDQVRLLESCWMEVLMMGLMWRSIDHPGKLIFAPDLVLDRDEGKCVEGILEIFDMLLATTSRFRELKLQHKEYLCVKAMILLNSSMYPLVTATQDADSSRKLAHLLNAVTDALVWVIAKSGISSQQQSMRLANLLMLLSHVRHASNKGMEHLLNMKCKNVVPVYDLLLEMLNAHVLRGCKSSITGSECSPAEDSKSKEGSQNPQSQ

Row | Structure (SMILES) | Allen Doisy test, active dose ([1]; oral) [mg/kg] | Allen Doisy test, active dose ([1]; sc) [mg/kg] | Osteoporosis test, minimal active dose (MAD) [2] [mg/kg] | Binding-assay Erα (relative binding affinity, potency ratio) [3] | Binding-assay Erβ (relative binding affinity, potency ratio) [4] | Transactivation Erβ (agonist potency ratio) [5] | Transactivation Erα (agonist potency ratio) [6]
1 | CCC[C@@H]1Cc2cc(O)ccc2C2CC[C@@]3(C)C(C[C@H]4CC[C@H](O)C[C@]43O)C21 (stereo partly drawn) [E, (7α,16β,17 α,22S)-7-propyl-16,24-cyclo-19,21-dinorchola-1,3,5(10)-triene-3,17,22-triol] | 0.03 | 0.005 | 0.03 |  |  |  | 
2 | CCCC1Cc2cc(O)ccc2C2CCC3(C)C(CC4CCCCC43O)C12 (stereo not drawn) [(7α,16β,17α)-7-propyl-16,24-cyclo-19,21-dinorchola-1,3,5(10)-triene-3,17-diol] | 0.125 | 0.024 | 0.19 | 15 | 7 | < 0.1 | 0.3

From patent publication US20100249083A1, “16,17-CARBOCYCLIC CONDENSED STEROID COMPOUNDS HAVING SELECTIVE ESTROGENIC ACTIVITY” (N.V. Organon, priority 2000, published 2010)
